Data published in US20080039522A1, “Composition Containing a Complex Comprising a Metal Ion and a Carboxylate Ligand Having Anti-Inflammatory Activity” (Medical Therapies Limited, priority 2004, published 2008).
Several values for one entry are separate records, joined by “and”; a condition that tells them apart may be missing. Equal values may be shown once.

Legend:
[1] = system: Sprague-Dawley rats; assay: Gastric toxicity after subcutaneous or intramuscular injection; conditions: rat, in vivo, 4 h
Description: (§1) In Vivo Anti-inflammatory Activity and Gastric Toxicity. Groups of four rats were used for all studies. All doses were calculated as equivalent concentrations of Indo. […] For subcutaneous and intramuscular administration, rats were injected with 125-200 μL volumes of the test compositions (IndoH or [Cu2(Indo)4(OH2)2] in MCT oil). The control cohort was injected with equivalent volumes of neat MCT. Subcutaneous injections were made in the lower dorsal surface and intramuscular injections were made in the right hind thigh muscle. Inflammation was induced 1 h after dosing by injection of the formulation by an injection of carrageenan (0.1 mL, 1% w/v in isotonic saline) into the plantar region of the hind paw.
(§2) Paw volume was measured prior to dosing and at 3 h after carrageenan injection by immersing the left hind paw (to the lateral malleus) into a vessel filled with water as described in Example 5. Immediately after paw volume measurements, 24 h-fasted animals were euthanised and the stomach was excised and opened by incision along the greater curvature.

[2] = system: Sprague-Dawley rats; assay: Observation of the site of the subcutaneous injection; assay type: in vivo, rat; conditions: rat, in vivo, sc
Description: as §1

[3] = system: Sprague-Dawley rats; assay: Small intestine ulceration after oral administration; assay type: in vivo, rat; conditions: rats fed, oral gavage, 24 h after dosing, IndoH 10 mg kg^−1, complexes 11 mg kg^−1, mean ± sem
Description: The rats were orally administered (non-anaesthetized) the Test Samples or Test Compositions via oral gavage. The controls were dosed with CMC (2%) solution.
(§3) The total volume of the MCT or carbopol paste compositions administered per dose in the assessment of gastrointestinal ulceration was no more than 0.5 g.

[4] = system: Sprague-Dawley rats; assay: Anti-inflammatory activity (rat paw oedema) of topical creams; assay type: in vivo; conditions: topical emulsifying cream
Description: All rat experiments were performed as outlined in Example 7, except for the following changes. In Vivo Anti-inflammatory Activity and Gastric Toxicity. For topical administration, rats were treated with test compositions containing [Cu2(Indo)4(OH2)2] (“CuIndo”), [Zn(Indo)2(OH2)2] (“ZnIndo”), IndoH, or an equivalent Indo and Cu dose of a physical mixture of [Cu2(OAc)4(OH2)2] and IndoH thoroughly mixed in an emulsifying cream (see below). An amount of 0.2 g of the composition was applied to the right hind paw of each animal and gently massaged in for 1 minute at three-hourly intervals. Inflammation was induced at the final topical application with an injection of carrageenan (0.1 mL, 1% w/v in isotonic saline) into the plantar region of the hind paw. The composition for topical application was a composition comprising 0.5-2% w/w of Indo delivered as [Cu2(Indo)4(OH2)2] (“CuIndo”), [Zn(Indo)2(OH2)2] (“ZuIndo”), IndoH or an equivalent Indo and Cu dose of a physical mixture of [Cu2(OAc)4(OH2)2] and IndoH in an emulsifying cream, the emulsifying cream consisting of: […]

[5] = system: Sprague-Dawley rats; assay: Small intestinal toxicity of topical creams; conditions: rat, in vivo
Description: In Vivo Small Intestinal Toxicity.
All rat experiments were performed as outlined in Example 7, except for the following changes.
In Vivo Anti-inflammatory Activity and Gastric Toxicity. For topical administration, rats were treated with test compositions containing [Cu2(Indo)4(OH2)2] (“CuIndo”), [Zn(Indo)2(OH2)2] (“ZnIndo”), IndoH, or an equivalent Indo and Cu dose of a physical mixture of [Cu2(OAc)4(OH2)2] and IndoH thoroughly mixed in an emulsifying cream (see below). An amount of 0.2 g of the composition was applied to the right hind paw of each animal and gently massaged in for 1 minute at three-hourly intervals. Inflammation was induced at the final topical application with an injection of carrageenan (0.1 mL, 1% w/v in isotonic saline) into the plantar region of the hind paw.

[6] = system: Sprague-Dawley rats; assay: Inhibition of carrageenan-induced paw edema, oral administration; assay type: in vivo, rat; conditions: for percent inhibition in rat hind-paw diameter change, 3-hr / percent inhibition in rat hind-paw diameter change, 5-hr: oral, IndoH 10 mg kg^−1, complex 11 mg kg^−1, mean(sem); for percent inhibition in rat hind-paw diameter change, 3-hr: 3 h post carrageenan; for percent inhibition in rat hind-paw diameter change, 5-hr: 5 h post carrageenan
Description: Inhibition of Carrageenan-Induced Paw Edema: Rats were orally administered (non-anaesthetized) the Test Samples or Test Compositions via oral gavage. The control cohort was dosed solely with CMC (2%) solution. […] Exp. Ther. 1965, 150, 165-171). The thickness of the paw was measured at the ventral dorsal footpad using digital calipers prior to dosing and at 3 and 5 h after carrageenan injection. The change in the measured parameter (ΔP) for thickness of paw (Δmm) at n=3- and 5-hours after carrageenan injection is given by: ΔP=Pt=n-Pt=0 (I) The percent inhibition (% inhibition) at 3- or 5-hours in the measured parameter (P) due to the treatment is given as the difference between the % increase in the value of P in the control group and the treatment group at n=3- or 5-hours, with the % increase in the value of P given by: […]

[7] = system: Sprague-Dawley rats; assay: Anti-inflammatory activity (rat paw oedema) after subcutaneous or intramuscular injection; assay type: in vivo
Description: as §1, §2

[8] = system: Sprague-Dawley rats; assay: Acute gastric ulceration after oral administration; assay type: in vivo, rat; conditions: for gastric ulceration: 10 mg kg^−1 dose of Indo
Description: Gastrointestinal Ulceration: To assess gastric damage, rats (n=4 per group) were fasted overnight with free access to water prior to the oral administration (non-anaesthetized) of the Test Samples or Test Compositions via oral gavage. The controls were dosed with CMC (2%) solution. Three hours after dosing, the rats were euthanised and the stomach was excised and opened by incision along the greater curvature. The stomach was rinsed, submerged in 10% formaldehyde for 1 h and examined to determine the extent of macroscopic gastric damage.
as §3
In order to illustrate the adverse effects of decomposition of the copper complex in the formulation, the gastric toxicity of IndoH, Cu-acetate, a physical mixture of Cu-acetate and IndoH and [Cu2(Indo)4(DMF)2] were tested at equivalent doses of Indo (10 mg kg^−1) and/or Cu in the MCT paste or a 2% (w/v) aqueous solution of carboxymethylcellulose (CMC). The MCT paste formulations were prepared as described in Example 3 but using IndoH, Cu-acetate, a physical mixture of Cu-acetate and IndoH, or [Cu2(Indo)4(DMF)2] instead of [Cu2(Indo)4(OH2)2]. The gastric toxicity was tested as described above. The results of these experiments are illustrated in FIG. 3.
In further experiments designed to test the toxicity of solutions of the Cu complex, the [Cu2(Indo)4(DMF)2] complex was dissolved in DMF and gastric toxicities were assessed. […] Similar results would be expected using other complexes, including [Cu2(Indo)4(OH2)2], in a non-colloidal solution.

COc1ccc2c(c1)c(CC(=O)O)c(C)n2C(=O)c1ccc(Cl)cc1 [IndoH, 1-(4-chlorobenzoyl)-5-methoxy-2-methyl-1H-indole-3-acetic acid]
Gastric ulcers (mm^2) ([1]; 5 mg/kg): 1, 0, 1, 2 mm^2 | Gastric ulcers (mm^2) ([1]; 10 mg/kg): 12, 3, 8, 20 mm^2 | adverse effect at the site of the injection [2]: None of the rats exhibited soreness, swelling, redness or any other adverse effect | Small intestine ulceration (mm^2) ([3]; listed as Sample I): 177.0±4.4 mm^2 | Efficacy (% inhib) ([4]; conc. 0.5 % equiv of Indo): 18.6 % inhib | Efficacy (% inhib) ([4]; conc. 0.75 % equiv of Indo): 60.8 % inhib | Efficacy (% inhib) ([4]; conc. 1 % equiv of Indo): 35 % inhib | Efficacy (% inhib) ([4]; conc. 2 % equiv of Indo): 42 % inhib | intestinal bleeding [5]: ^bOvert intestinal bleeding. | ED50 ([6]; delivered in CMC): 2.8 ± 1.7 mg/kg | ED50 ([6]; delivered in MCT paste): 1 mg/kg | percent inhibition in rat hind-paw diameter change, 3-hr [6]: 21(8) % | percent inhibition in rat hind-paw diameter change, 3-hr ([6]; listed as Indomethacin): 21(8)% | percent inhibition in rat hind-paw diameter change, 5-hr [6]: 25(6) % | percent inhibition in rat hind-paw diameter change, 5-hr ([6]; listed as Indomethacin): 25(6)% | Percent inhibition ([7]; intramuscular, fasting rats, 5 mg/kg equivalent dose of Indo): 38.7% | Percent inhibition ([7]; intramuscular, fasting rats, 10 mg/kg equivalent dose of Indo): 49.4% | Percent inhibition ([7]; subcutaneous, 7.5 mg/kg of Indo, non-fasting): 34%

COc1ccc2c(c1)c(CC(=O)[O-])c(C)n2C(=O)c1ccc(Cl)cc1.COc1ccc2c(c1)c(CC(=O)[O-])c(C)n2C(=O)c1ccc(Cl)cc1.O.O.[Zn+2] [ZnIndo, [Zn(Indo)2(OH2)2]]
Efficacy (% inhib) ([4]; conc. 0.5 % equiv of Indo): 29 % inhib | Efficacy (% inhib) ([4]; conc. 1 % equiv of Indo): 41 % inhib

CN(C)C=O.CN(C)C=O.COc1ccc2c(c1)c(CC(=O)[O-])c(C)n2C(=O)c1ccc(Cl)cc1.COc1ccc2c(c1)c(CC(=O)[O-])c(C)n2C(=O)c1ccc(Cl)cc1.COc1ccc2c(c1)c(CC(=O)[O-])c(C)n2C(=O)c1ccc(Cl)cc1.COc1ccc2c(c1)c(CC(=O)[O-])c(C)n2C(=O)c1ccc(Cl)cc1.[Cu+2].[Cu+2] [[Cu2(Indo)4(DMF)2], bis(N,N-dimethylformamide)tetrakis-μ-(O,O′-Indo)dicopper(II)]
gastric ulceration ([8]; complex dissolved in DMF alone): > 200 mm^2 | gastric ulceration ([8]; complex in DMF containing 2% CMC): 100 mm^2 | gastric damage in 0.5 mL MCT paste compared with 0.5 mL of 2% (w/v) CMC solution ([8]; oral, equivalent doses of Indo (10 mg kg^−1) and/or Cu, FIG. 3): less GI toxicity for the MCT formulation compared to the CMC formulation | gastric ulcerations compared to the control ([8]; oral, equivalent doses of Indo (10 mg kg^−1) and/or Cu, [Cu2(Indo)4(DMF)2] in MCT paste, Cu-acetate in CMC solution or MCT paste, FIG. 3): no significant gastric ulcerations | Gastric ulceration (mm^2) ([8]; rats fasted overnight, oral gavage, 3 h after dosing, IndoH 10 mg kg^−1, complexes 11 mg kg^−1, mean ± sem, listed as Sample M): 49±7 mm^2 and 49.0±6.7 mm^2 | Small intestine ulceration (mm^2) ([3]; listed as Sample M): 8.7±2.9 mm^2
